Consider eleven molecules from ChEMBL document CHEMBL1287705, “Design and synthesis of threading intercalators to target DNA” (Bioorg Med Chem Lett, 2010).

As usually defined, the GI50 is the concentration giving 50% growth inhibition. The term IC50 denotes the concentration that gives 50% inhibition. Read a high IC50 as weaker potency.

One assay concerns Calf thymus DNA. Nature of the assay: Displacement of ethidium bromide from calf thymus DNA by fluorometric assay. The format is nucleic-acid assay. As to conditions: Bos taurus.
For assay [1], the system named is HL-60. Nature of the assay: Growth inhibition of human HL60 cells. The format is functional.
In assay [2] the test system is HL-60. The assay can be described thus: Cytotoxicity against human HL60 cells by MTS assay. The format is functional, cell-based. (Tetrazolium assays rely on reduction of a dye to a coloured formazan, in cell work by metabolically active cells.)

In the assay with Calf thymus DNA, `Nc1c2ccccc2nc2ccccc12` [AMINACRINE] yielded a Kapp of 1.8 ×10⁶ /M and a logKA of 6.26. In the assay on HL-60 [1], this molecule displayed a GI50 of 2 µM.

`CN(C)CCNC(=O)c1ccc2c(NCCCCCCNS(=O)(=O)c3cccc4c(N(C)C)cccc34)c3ccccc3nc2c1` registered an IC50 in the assay on HL-60 [2] of 26.7 µM.

In the assay on HL-60 [2], `CN(C)CCNC(=O)c1ccc2c(NCCCCCCNS(=O)(=O)c3cccc4cccnc34)c3ccccc3nc2c1` returned an IC50 of 35.8 µM.

For `CN(C)CCNC(=O)c1cccc2c(NCCCCCCNC(=O)c3cccc4ccccc34)c3ccccc3nc12`, the concentration for half-maximal inhibition (IC50) in the assay with HL-60 [2] was 3.5 µM.

For `CN(C)CCNC(=O)c1ccc2c(NCCCCCCN)c3ccccc3nc2c1`, in the assay on HL-60 [2], inhibition was half-maximal at 38.3 µM (IC50). In the assay on Calf thymus DNA, the Kapp worked out at 9.83 ×10⁶ /M.

In the assay on HL-60 [2], `CN(C)CCNC(=O)c1cccc2c(NCCCCCCN)c3ccccc3nc12` had a half-maximal inhibitory concentration (IC50) of 0.45 µM. This molecule displayed a Kapp with Calf thymus DNA of 3.1 ×10⁷ /M.

Take `CN(C)CCNC(=O)c1cccc2c(NCCCCCCNS(=O)(=O)c3cccc4c(N(C)C)cccc34)c3ccccc3nc12`: 2.1 µM corresponded to half-maximal inhibition in the assay with HL-60 [2] (IC50).

`CN(C)CCNC(=O)c1cccc2c(NCCCCCCNC(=O)c3ccc4ccccc4n3)c3ccccc3nc12` displayed an IC50 with HL-60 [2] of 22.6 µM.

As to `CN(C)CCNC(=O)c1ccc2c(NCCCCCCNC(=O)c3cccc4ccccc34)c3ccccc3nc2c1`, the IC50 in the assay with HL-60 [2] is 58.9 µM.

In the assay with HL-60 [2], `CN(C)CCNC(=O)c1cccc2c(NCCCCCCNS(=O)(=O)c3cccc4cccnc34)c3ccccc3nc12` gave an IC50 of 16 µM.

In the assay on HL-60 [2], `CN(C)CCNC(=O)c1ccc2c(NCCCCCCNC(=O)c3ccc4ccccc4n3)c3ccccc3nc2c1` returned an IC50 of 30.7 µM.
